The values that follow come from US8461151B2, “Aryl-/heteroaryl-cyclohexenyl-tetraazabenzo[e]azulenes” (Hoffmann-La Roche Inc., priority 2010, dated 2013).

Counter-ions that a name gives are not always drawn.

One assay deals with T1, human V1a receptor (Homo sapiens, UniProt P37288).
T1 construct: expressed in transfected cells; host or cells: HEK293 cells, transiently transfected; membranes
T1 sequence (P37288 whole entry): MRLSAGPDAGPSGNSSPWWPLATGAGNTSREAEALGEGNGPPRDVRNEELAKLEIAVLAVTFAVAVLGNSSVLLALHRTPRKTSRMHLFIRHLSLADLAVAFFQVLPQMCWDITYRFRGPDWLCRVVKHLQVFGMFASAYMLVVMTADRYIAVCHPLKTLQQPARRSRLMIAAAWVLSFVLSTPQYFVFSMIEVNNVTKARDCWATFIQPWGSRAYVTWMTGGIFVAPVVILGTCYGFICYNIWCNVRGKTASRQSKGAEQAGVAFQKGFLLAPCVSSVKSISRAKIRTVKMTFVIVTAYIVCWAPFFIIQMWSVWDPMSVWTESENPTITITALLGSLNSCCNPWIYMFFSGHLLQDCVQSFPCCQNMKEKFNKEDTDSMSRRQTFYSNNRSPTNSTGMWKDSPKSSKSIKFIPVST
The experiment in a line: human V1a receptor binding studies (3H-Vasopressin SPA, membranes of transfected HEK293 cells). Conditions: 3H-Vasopressin displacement, HEK293 cell membranes, SPA beads, 1 h at room temperature, Ki by Cheng-Prussoff from IC50, read-out: pKi (hV1a) (converted). As to the method: The human V1a receptor was cloned by RT-PCR from total human liver RNA. The coding sequence was subcloned in an expression vector after sequencing to confirm the identity of the amplified sequence. […] Cell membranes were prepared from HEK293-cells transiently transfected with the expression vector and grown in 20 liter fermenters with the following protocol.
50 g of cells are resuspended in 30 ml freshly prepared ice cold Lysis buffer (50 mM HEPES, 1 mM EDTA, 10 mM magnesium dichloride adjusted to pH=7.4+ complete cocktail of protease inhibitor (Roche Diagnostics)). Homogenized with Polytron for 1 min and sonicated on ice for 2×2 minutes at 80% intensity (Vibracell sonicator). The preparation is centrifuged 20 min at 500 g at 4° C., the pellet is discarded and the supernatant centrifuged 1 hour at 43,000 g at 4° C. (19,000 rpm). The pellet is resuspended in 12.5 ml Lysis buffer+12.5 ml sucrose 20% and homogenized using a Polytron for 1-2 min. The protein concentration is determined by the Bradford method and aliquots are stored at −80° C. until use. For binding studies 60 mg Yttrium silicate SPA beads (Amersham®) are mixed with an aliquot of membrane in binding buffer (50 mM Tris, 120 mM sodium chloride, 5 mM potassium chloride, 2 mM calcium dichloride, 10 mM magnesium dichloride) for 15 minutes with mixing. 50 μl of bead/membrane mixture is then added to each well of a 96 well plate, followed by 50 μl of 4 nM 3H-Vasopressin (American Radiolabeled Chemicals). For total binding measurement 100 μl of binding buffer are added to the respective wells, for non-specific binding 100 μl of 8.4 mM cold vasopressin and for compound testing 100 μl of a serial dilution of each compound in 2% dimethyl sulfoxide. The plate is incubated 1 h at room temperature, centrifuged 1 min at 1000 g and counted on a Packard Top-Count. Non-specific binding counts are subtracted from each well and data is normalized to the maximum specific binding set at 100%. To calculate an IC50 the curve is fitted using a non-linear regression model (XLfit) and the Ki is calculated using the Cheng-Prussoff equation.
On to `Clc1ccc2c(c1)CNCc1nnc(C3CC=C(c4ccccc4)CC3)n1-2` (racemic) [Example 1, (RS)-8-Chloro-1-(4-phenyl-cyclohex-3-enyl)-5,6-dihydro-4H-2,3,5,10b-tetraaza-benzo[e]azulene hydrochloride], for which the Ki is 0.01 µM.

For `Cc1ccccc1C1=CCC(c2nnc3n2-c2ccc(Cl)cc2CNC3)CC1` (racemic) [Example 3, (RS)-8-Chloro-1-(4-o-tolyl-cyclohex-3-enyl)-5,6-dihydro-4H-2,3,5,10b-tetraaza-benzo[e]azulene hydrochloride], the Ki was 0.00513 µM.

For the molecule `Cc1ccccc1C1=CCC(c2nnc3n2-c2ccc(Cl)cc2CN(C)C3)CC1` (racemic) [Example 4, (RS)-8-Chloro-5-methyl-1-(4-o-tolyl-cyclohex-3-enyl)-5,6-dihydro-4H-2,3,5,10b-tetraaza-benzo[e]azulene], the Ki is 0.00209 µM.

On to `CC(C)(C)OC(=O)N1Cc2cc(Cl)ccc2-n2c(nnc2C2CC=C(c3ccc(F)cc3)CC2)C1` (racemic) [Example 5, (RS)-8-Chloro-1-[4-(4-fluoro-phenyl)-cyclohex-3-enyl]-4H,6H-2,3,5,10b-tetraaza-benzo[e]azulene-5-carboxylic acid tert-butyl ester], for which the Ki is 0.00832 µM.

Regarding `Fc1ccc(C2=CCC(c3nnc4n3-c3ccc(Cl)cc3CNC4)CC2)cc1` (racemic) [Example 6, (RS)-8-Chloro-1-[4-(4-fluoro-phenyl)-cyclohex-3-enyl]-5,6-dihydro-4H-2,3,5,10b-tetraaza-benzo[e]azulene hydrochloride], the Ki was 0.0295 µM.

As for `CN1Cc2cc(Cl)ccc2-n2c(nnc2C2CC=C(c3ccc(F)cc3)CC2)C1` (racemic) [Example 7, (RS)-8-Chloro-1-[4-(4-fluoro-phenyl)-cyclohex-3-enyl]-5-methyl-5,6-dihydro-4H-2,3,5,10b-tetraaza-benzo[e]azulene], the Ki was 0.00676 µM.

Regarding `CC(C)(C)OC(=O)N1Cc2cc(Cl)ccc2-n2c(nnc2C2CC=C(c3cccc(OC(F)(F)F)c3)CC2)C1` (racemic) [Example 8, (RS)-8-Chloro-1-[4-(3-trifluoromethoxy-phenyl)-cyclohex-3-enyl]-4H,6H-2,3,5,10b-tetraaza-benzo[e]azulene-5-carboxylic acid tert-butyl ester], the Ki was 0.0724 µM.

In the case of `FC(F)(F)Oc1cccc(C2=CCC(c3nnc4n3-c3ccc(Cl)cc3CNC4)CC2)c1` (racemic) [Example 9, (RS)-8-Chloro-1-[4-(3-trifluoromethoxy-phenyl)-cyclohex-3-enyl]-5,6-dihydro-4H-2,3,5,10b-tetraaza-benzo[e]azulene hydrochloride], the Ki was 0.331 µM.

Take `CN1Cc2cc(Cl)ccc2-n2c(nnc2C2CC=C(c3cccc(OC(F)(F)F)c3)CC2)C1` (racemic) [Example 10, (RS)-8-Chloro-5-methyl-1-[4-(3-trifluoromethoxy-phenyl)-cyclohex-3-enyl]-5,6-dihydro-4H-2,3,5,10b-tetraaza-benzo[e]azulene]: the Ki was 0.0589 µM.

Take `CC(C)(C)OC(=O)N1Cc2cc(Cl)ccc2-n2c(nnc2C2CC=C(c3cccc(F)c3Cl)CC2)C1` (racemic) [Example 11, (RS)-8-Chloro-1-[4-(2-chloro-3-fluoro-phenyl)-cyclohex-3-enyl]-4H,6H-2,3,5,10b-tetraaza-benzo[e]azulene-5-carboxylic acid tert-butyl ester]: the Ki was 0.00813 µM.

Regarding `Fc1cccc(C2=CCC(c3nnc4n3-c3ccc(Cl)cc3CNC4)CC2)c1Cl` (racemic) [Example 12, (RS)-8-Chloro-1-[4-(2-chloro-3-fluoro-phenyl)-cyclohex-3-enyl]-5,6-dihydro-4H-2,3,5,10b-tetraaza-benzo[e]azulene hydrochloride], the Ki is 0.0288 µM.

With `CN1Cc2cc(Cl)ccc2-n2c(nnc2C2CC=C(c3cccc(F)c3Cl)CC2)C1` (racemic) [Example 13, (RS)-8-Chloro-1-[4-(2-chloro-3-fluoro-phenyl)-cyclohex-3-enyl]-5-methyl-5,6-dihydro-4H-2,3,5,10b-tetraaza-benzo[e]azulene], the Ki was 0.00575 µM.

Consider `CC(C)(C)OC(=O)N1Cc2cc(Cl)ccc2-n2c(nnc2C2CC=C(c3cccc4ccccc34)CC2)C1` (racemic) [Example 14, (RS)-8-Chloro-1-(4-naphthalen-1-yl-cyclohex-3-enyl)-4H,6H-2,3,5,10b-tetraaza-benzo[e]azulene-5-carboxylic acid tert-butyl ester], for which the Ki is 0.011 µM.

Consider `Clc1ccc2c(c1)CNCc1nnc(C3CC=C(c4cccc5ccccc45)CC3)n1-2` (racemic) [Example 15, (RS)-8-Chloro-1-(4-naphthalen-1-yl-cyclohex-3-enyl)-5,6-dihydro-4H-2,3,5,10b-tetraaza-benzo[e]azulene hydrochloride], for which the Ki was 0.112 µM.

Take `CN1Cc2cc(Cl)ccc2-n2c(nnc2C2CC=C(c3cccc4ccccc34)CC2)C1` (racemic) [Example 16, (RS)-8-Chloro-5-methyl-1-(4-naphthalen-1-yl-cyclohex-3-enyl)-5,6-dihydro-4H-2,3,5,10b-tetraaza-benzo[e]azulene]: the Ki was 0.0191 µM.

For the molecule `COc1ccc(F)cc1C1=CCC(c2nnc3n2-c2ccc(Cl)cc2CN(C(=O)OC(C)(C)C)C3)CC1` (racemic) [Example 17, (RS)-8-Chloro-1-[4-(5-fluoro-2-methoxy-phenyl)-cyclohex-3-enyl]-4H,6H-2,3,5,10b-tetraaza-benzo[e]azulene-5-carboxylic acid tert-butyl ester], the Ki was 0.0204 µM.

Take `COc1ccc(F)cc1C1=CCC(c2nnc3n2-c2ccc(Cl)cc2CNC3)CC1` (racemic) [Example 18, (RS)-8-Chloro-1-[4-(5-fluoro-2-methoxy-phenyl)-cyclohex-3-enyl]-5,6-dihydro-4H-2,3,5,10b-tetraaza-benzo[e]azulene hydrochloride]: the Ki is 0.0977 µM.

In the case of `COc1ccc(F)cc1C1=CCC(c2nnc3n2-c2ccc(Cl)cc2CN(C)C3)CC1` (racemic) [Example 19, (RS)-8-Chloro-1-[4-(5-fluoro-2-methoxy-phenyl)-cyclohex-3-enyl]-5-methyl-5,6-dihydro-4H-2,3,5,10b-tetraaza-benzo[e]azulene], the Ki is 0.01 µM.

As for `CC(C)(C)OC(=O)N1Cc2cc(Cl)ccc2-n2c(nnc2C2CC=C(c3cccc(C#N)c3)CC2)C1` (racemic) [Example 20, (RS)-8-Chloro-1-[4-(3-cyano-phenyl)-cyclohex-3-enyl]-4H,6H-2,3,5,10b-tetraaza-benzo[e]azulene-5-carboxylic acid tert-butyl ester], the Ki was 0.0468 µM.

Regarding `N#Cc1cccc(C2=CCC(c3nnc4n3-c3ccc(Cl)cc3CNC4)CC2)c1` (racemic) [Example 21, (RS)-3-[4-(8-Chloro-5,6-dihydro-4H-2,3,5,10b-tetraaza-benzo[e]azulen-1-yl)-cyclohex-1-enyl]benzonitrile hydrochloride], the Ki was 0.427 µM.

Consider `CN1Cc2cc(Cl)ccc2-n2c(nnc2C2CC=C(c3cccc(C#N)c3)CC2)C1` (racemic) [Example 22, (RS)-3-[4-(8-Chloro-5-methyl-5,6-dihydro-4H-2,3,5,10b-tetraaza-benzo[e]azulen-1-yl)-cyclohex-1-enyl]benzonitrile], for which the Ki was 0.0562 µM.

On to `CC(C)(C)OC(=O)N1Cc2cc(Cl)ccc2-n2c(nnc2C2CC=C(c3cc(F)ccn3)CC2)C1` (racemic) [Example 25, (RS)-8-Chloro-1-[4-(4-fluoro-pyridin-2-yl)-cyclohex-3-enyl]-4H,6H-2,3,5,10b-tetraaza-benzo[e]azulene-5-carboxylic acid tert-butyl ester], for which the Ki is 0.00468 µM.

As to `Fc1ccnc(C2=CCC(c3nnc4n3-c3ccc(Cl)cc3CNC4)CC2)c1` (racemic) [Example 26, (RS)-8-Chloro-1-[4-(4-fluoro-pyridin-2-yl)-cyclohex-3-enyl]-5,6-dihydro-4H-2,3,5,10b-tetraaza-benzo[e]azulene], the Ki was 0.11 µM.

Consider `CN1Cc2cc(Cl)ccc2-n2c(nnc2C2CC=C(c3cc(F)ccn3)CC2)C1` (racemic) [Example 27, (RS)-8-Chloro-1-[4-(4-fluoro-pyridin-2-yl)-cyclohex-3-enyl]-5-methyl-5,6-dihydro-4H-2,3,5,10b-tetraaza-benzo[e]azulene], for which the Ki is 0.0105 µM.

The assay is the same for the next values; noted with them: pKi (hV1a), 3H-Vasopressin displacement, HEK293 cell membranes, SPA beads, 1 h at room temperature, Ki by Cheng-Prussoff from IC50.
For `CN1Cc2cc(Cl)ccc2-n2c(nnc2C2CC=C(c3ccccc3)CC2)C1` (racemic) [Example 2, (RS)-8-Chloro-5-methyl-1-(4-phenyl-cyclohex-3-enyl)-5,6-dihydro-4H-2,3,5,10b-tetraaza-benzo[e]azulene], the Ki was 0.00269 µM.
